The text below walks through data of patent US20200369996A1, “Bioreactor Screening Platform for Modelling Human Systems Biology and for Screening for Inotropic Effects of Agents on the Heart” (NOVOHEART LIMITED, priority 2017, published 2020).

“Also recorded” adds a separate entry of the source. Read-outs that look alike come from different tables or passages of the source.

Assay [1] has as its system human ventricular cardiac tissue strips (hvCTS). The assay can be described thus: hvCTS drug screening: twitch force under electrical pacing. Conditions: Homo sapiens. It is filed as cell-based. The procedure: One of ordinary skill in the art will recognize that the gels can be formed in any of a variety of sizes and shapes, and the molds used to form such gels can also be formed in any of a variety of sizes and shapes, depending on the intended use of the molded gel. The molded mixtures were then bathed with culture medium (DMEM supplemented with 10% newborn calf serum), and maintained in culture with daily half-medium exchanges. Inserts in the casting molds were removed at 48 hours, yielding a self-assembled hvCTS held between 0.5-mm-diameter circular PDMS posts at each end. It is apparent that the posts can be formed from any flexible material amenable to at least one form of sterilization are suitable. As noted above, the whole mold can be scaled up or down depending on the application, and the posts can also be scaled up or down. In general, the height of the posts would be similar to the height of a well (e.g., about 6 mm in an exemplary embodiment). Any of a wide variety of cross-sectional shapes is contemplated as being suitable for use in the system, apparatus and methods according to the disclosure. At 7 days after hvCTS creation, the hvCTS were used for drug screening.
Initially, pharmacological compounds were prepared for screening. Compounds for unblinded “open label” screening were purchased from Sigma and stock solutions at the highest possible concentrations were prepared according to the product information. Working concentrations over a 5-logarithmic range were prepared for each drug.
Working concentrations over a 5-logarithmic range were prepared for each drug according to the dose-range recommendation provided by the supplier.
New born calf serum containing medium was replaced with DMEM high glucose with HEPES without phenol red for optical measurement of generated force in hvCTS. […] The integrated flexible PDMS posts were used as force sensors, with the post deflection captured in real-time with a high-speed camera (100 frames/s) and LabView software (National Instruments, Austin, Tex., USA), applying a beam-bending equation from elasticity theory to calculate twitch force, as described previously^[2] and incorporated herein by reference. These measurements were obtained with the hvCTS maintained in the original molds where they were created with the hvCTS bathed in culture medium at 37° C. For each drug, force generated in response to 9 doses were measured with the drugs added to the hvCTS at half log increments in a cumulative manner. For each dose, the force generated at 0 Hz, 0.5 Hz, 1 Hz, 1.5 Hz and 2 Hz electrical pacing with field electrodes were measured.
Data analysis. Data were calculated and analyzed by a customized MatLab program. Force frequency curves for each drug were generated by plotting the generated force at 0.5 Hz, 1 Hz, 1.5 Hz and 2 Hz at different concentrations. All forces were normalized to the generated force at 0.5 Hz at the drug-free baseline condition (100%).
[…] The force generated under drug-free baseline condition was defined as 100%. The force generated at each drug concentration was then normalized to the generated force under the cognate drug-free baseline condition. The EC50 of each tested drug was estimated by fitting to a four-parameter dose-response equation given as: Y=Bottom+(Top-Bottom)/(1+10^((Log EC^50^−X)*HillSlope)), using commercial software (GraphPad Software Inc.). X is the logarithm of drug concentrations; […]; Top and Bottom are the Y values of the top and bottom plateaus of the curve itself; Baseline is the Y value that defines 0%—maximal inhibition by a standard drug. Hill Slope quantifies the steepness of the dose-response curve (the higher the Hill Slope, the steeper the curve).

Assay [2] deals with human ventricular cardiac organoid chamber (hvCOC). The assay can be described thus: hvCOC second tier screening: contractile (pump) function. It is filed as cell-based. An excerpt: The initial steps of hvCOC fabrication are identical to that described above for hvCTS generation, from the dissociation of cell clusters to the preparation of the cells/collagen/Matrigel mix with 1 million cells/ml of human dermal fibroblasts.
To create the chamber, we followed a procedure similar to a published procedure^29, incorporated herein by reference. Briefly, the top of a 3×3×6 cm polystyrene bioreactor was modified to permit 9-gauge hypodermic tubing (Small Parts) to pass through the center and 4 mm diameter graphite electrodes (GraphiteStore) to flank the chamber on the edges of the bioreactor. A 6-Fr silicone balloon Foley catheter (Cook Medical), with the tip cut off and sealed with silicone caulking, was threaded through the 9-Gauge tubing into the center of the bioreactor. A small ring cut from hydrophilic porous polyethylene (Fisher Scientific) was placed just above the balloon on the hypodermic tubing.
The balloon was filled with distilled water to the desired chamber size and positioned concentrically within a 2% agarose mold created in phosphate-buffered saline (PBS) and made by inserting a 13 mm diameter test tube (VWR) into the center of the agarose. The agarose mold forms the outer mold boundary while the catheter balloon forms the inner boundary. […]

Assay [3] relates to non-failing human myocardium. The following applies: ref [18]; cited from earlier work.
A further assay relates to EHT from hiPSC-CMs. Conditions: drug screening with EHT from hiPSC-CMs; ref [3]; cited from earlier work.
Assay [4] has as its system sheep cardiac Purkinje fibers. The following applies: ref [19]; cited from earlier work.
Assay [5] relates to human right atrial trabeculae. Conditions: ref [21]; cited from earlier work.
The test system of the next assay is hECT. Conditions: hECT in muscle bath; ref [28]; cited from earlier work.

Regarding `CC(C)NCC(O)c1ccc(O)c(O)c1` (stereo not shown) [Isoproterenol], the EC50 in assay [1] (0.5 Hz pacing, Example 2 / FIG. 2C, read-out: EC50, developed contractile force) was 39 nM; in assay [1] (1 Hz pacing, Example 2, read-out: EC50, developed contractile force), 59 nM; in assay [1] (1 Hz pacing, unblinded screening, Example 3, read-out: EC50, developed contractile force) it was 150 nM; in assay [1] (1.5 Hz pacing, Example 2, read-out: EC50, developed contractile force), 54 nM; in assay [1] (2 Hz pacing, Example 2 / FIG. 2C, read-out: EC50, developed contractile force), 31 nM; in assay [1] (Unblinded, 1 Hz pacing, read-out: -log EC50 in hvCTS (converted)), 148 nM. For the same molecule, the EC50 in assay [1] (Unblinded, 1 Hz pacing, read-out: EC50 in hvCTS (in brackets)) is 150 nM; in assay [1] (across pacing frequencies 0.5-2 Hz, FIG. 2C, read-out: EC50 with increasing pacing frequency), 31 to 59 nM. Also, the Emax at 10 µM was 113% in assay [1] (10 μM isoproterenol, hvCTS, read-out: maximal effect) and 132% in assay [2] (Homo sapiens, 10 μM isoproterenol, hvCOC, read-out: maximal effect, pressure). Moreover, the “effect on hvCOC function” value in assay [2] (stroke volume/stroke work, cardiac output, developed pressure) is “concentration-dependent increase in stroke volume, cardiac output, and developed pressure; also recorded: increase in stroke work, cardiac output and pressure volume loop”. The relevant concentration in assay [3] is 0.8 μM [18], non-failing human myocardium; in the assay on EHT from hiPSC-CMs it was 5.4 nM [3], drug screening with EHT from hiPSC-CMs.

As to `CCN(CC)CC(=O)Nc1c(C)cccc1C` [Lidocaine], in assay [1] (1 Hz pacing, blinded screening, Example 4, read-out: IC50, developed contractile force), the IC50 stood at 440 nM. Moreover, the EC50 is 437000 nM in assay [1] (Blinded, 1 Hz pacing, read-out: -log EC50 in hvCTS (converted)) and 439000 nM in assay [1] (Blinded, 1 Hz pacing, read-out: EC50 in hvCTS (in brackets)). The “concentration with negative inotropic effect” value in assay [4] is 20 μM, [19] negative inotropic effect in sheep.

Consider `COc1ccc(CCN(C)CCCC(C#N)(c2ccc(OC)c(OC)c2)C(C)C)cc1OC` (stereo not shown) [Verapamil], for which the IC50 in assay [5] was 123 nM. Also, in the assay on hECT, the relevant concentration is 0.61 μM [28], hECT in muscle bath.
